Values quoted from earlier work as cited in patent US11596166B2 (priority 2017, dated 2023).

Tested on: pellagra patients
Settings: in vivo

In the case of `O=C(O)c1cccnc1` [nicotinic acid], the acute mental symptoms is listed as “disappear rapidly, often over night”, the symptoms of pellagra is listed as “disappearance of many symptoms of the disease” and the “time to blanching of acute erythematous dermal lesions with intact epithelium” value is listed as at most 48 h. For the same compound, the “time to cessation of nausea and vomiting, normal bowel movements” value was 24 to 72 h and the “time to subsidence of redness and swelling of tongue, gums, mouth, throat, and vagina” value was 24 to 72 h.
